Source: patent US9157074B2, “Beta-amylase, gene coding therefor and manufacturing method thereof” (Amano Enzyme Inc., priority 2008, dated 2015)
“Also recorded” adds a separate entry of the source.

B1: β-amylase: purified β-amylase from Bacillus flexus APC9451, amino acid sequence SEQ ID NO: 7; final HiLoad 16/60 Superdex200 stage (protein, listed as Bacillus flexus)
chain: MYKPIKKFASLIVLLSFVAAFILGPTNSQAAVNGQSFNSNYKTYLMAPLKKVTEFTTWEAFENDLRKAKQNGFYAVTVDFWWGDMEKNGDQQFDFSYAQRFAQAARNAGIKMVPIISTHQCGGNVGDDCNTPLPSWIWNTKTDDSLYFKSETGTVNKETVNPLATDVITKQYGELYTAFAQALAPYKDVIPKVYLSGGPAGELRYPSYTAADGTGYPSRGKFQAYTDFAKSKFQMWAVNKYGSLAGVNQAWGLSLTSTSQILPPSDGNQFLKDGYNTNYGKDFLEWYQGVLQDHAKRIGALAHQAFDPVFNVPVGAKIAGIHWQYNNPTMPHAAEKPAGYNNYSTLLDSFKTAKLDLTFTCLEMVDSGTYPEYSMPKTLVKEVASLANAKGIVLNGENALSIGSEEQYKRAAEMTFNYNFAGFTLLRFYDVINNSTRMSQFNQHLNIKPVAQTMVVKNAPTSSGESVYIVGDRPELGQWDTIAYPIKLSYNSTYGDWRGTVNFPADRSVQFKAIIKRSDGSLKSWQPTQQYWNVPGTPTTYTNNW

Experiments:
β-amylase [1] = assay: Effect of metal ion and inhibitor on β-amylase activity; type: biochemical, Bacillus flexus; details: 30° C., 30 minutes; for Relative activity: 1 mM metal ion or inhibitor, pH 5.0, not added = 100%; for effect on activity: 1 mM
Procedure: (§1) The activity of β-amylase was measured as follows. To 0.5 ml of 0.1M phosphate-HCl buffer solution (pH 5.0) containing 1% soluble starch and 10 mM calcium acetate, 0.5 ml of enzyme solution was added. The mixture was incubated at 37° C. for 30 minutes. Then, 2.5 ml of DNS solution (0.2% DNS, 80 mM NaOH, 0.2 M potassium sodium tartrate tetrahydrate) was added to the mixture so as to stop the reaction. After the reaction was stopped, the reaction mixture was boiled for five minutes, the absorbance was measured at the wavelength of 530 nm. The enzyme amount when the absorbance measured at the wavelength of 530 nm is 1 is defined as one unit.
To β-amylase in 0.1 M acetic acid-hydrochloric acid buffer solution (pH 5.0) containing 10 mM calcium acetate, 1 mM of various metal ions or inhibitor were added, respectively, treated at 30° C. for 30 minutes, and then the activity was measured by the above-mentioned β-amylase activity. The values were shown as the relative activity when the metal ion and inhibitor were not added is defined as 100%. The activity was inhibited by Cu ion, iodine acetic acid, PCMB, and SDS.

β-amylase [2] = assay: Substrate specificity of β-amylase; type: biochemical, Bacillus flexus; details: for Relative activity (%): activity with respect to soluble starch = 100%, oligosaccharides 0.5%, 0.1 u/ml enzyme, 37° C., 30 minutes, maltose by HPLC; for substrate specificity (words): relative to soluble starch = 100%
Procedure: as §1
The β-amylase activity with respect to each substrate was examined. The values are shown as the relative activity when the activity with respect to soluble starch is defined as 100%. As to oligosaccharides, the production amount of maltose was examined by the below-mentioned quantification amount of maltose. After 0.1 u/ml enzyme was reacted to 0.5% of each maltooligosaccharide at 37° C. for 30 minutes, quantification of maltose was carried out by HPLC (Aminex carbohydrate HPX-42A, BIO-RAD). A production amount of maltose when the substrate is soluble starch is defined as 100%, the relative activity with respect to each maltooligosaccharide was calculated from the production amount of maltose.
The values were shown as the relative activity when a production amount of maltose with respect to soluble starch is defined as 100%.

pH stability = type: physicochemical; details: pH 4 to 9, 30° C., three hours
Procedure: as §1
β-amylase was treated in each of the buffer solutions (citric acid buffer: pH2, pH3, and pH4, Britton-Robinson buffer: pH4, pH5, pH6, pH7, pH8, pH9, pH10, and pH11) at 30° C. for three house, and then the activity was measured by the above-mentioned β-amylase activity measurement method. […] The […] was 4 to 9 (FIG. 4).

[3] = Thermostability (remaining activity after heat treatment); type: physicochemical
Procedure: as §1
The enzyme solution (20 u/ml) was subjected to heat treatment in 0.1 M acetic acid-hydrochloric acid buffer solution (pH 5.0) containing 10 mM calcium acetate at each temperature of 37° C., 50° C., 55° C., 60° C., 65° C. and 70° C. for 10 minutes, and then the remaining activity was measured by the above-mentioned β-amylase activity measurement method. The values are shown as the remaining activity when the remaining activity with no heat treatment is defined as 100%. […] (FIG. 3).

[4] = Optimum reaction temperature of β-amylase; type: biochemical; details: pH 5.0, reaction temperatures 25 to 70° C.
Procedure: as §1
According to the above-mentioned β-amylase activity measurement method, reaction was carried out at the reaction temperatures of 25° C., 37° C., 50° C., 55° C., 60° C., 65° C., and 70° C. […] The optimum reaction temperature was around 55° C. (FIG. 1).

[5] = Optimum reaction pH of β-amylase; type: biochemical; details: 1% soluble starch, 37° C., 10 minutes; citric acid buffer pH2-4, Britton-Robinson buffer pH4-11
Procedure: For the substrate, 1% soluble starch was used, and the measurement was carried out in each buffer solution (citric acid buffer: pH2, pH3, and pH4, Britton-Robinson buffer: pH4, pH5, pH6, pH7, pH8, pH9, pH10, and pH11) at 37° C. for 10 minutes. […] The optimum reaction pH was about 8.0 (FIG. 2).

[6] = β-amylase specific activity at each purification stage; type: biochemical
Procedure: as §1
Bacillus flexus APC9451 was cultured with shaking at 30° C. for three days by using a liquid medium having the compositions shown in Table 1. The obtained culture supernatant solution was four-times concentrated by using an UF membrane (AIP-0013, Asahi Kasei Corporation), and then ammonium sulfate was added thereto so as to obtain 60% saturation concentration. The precipitate fraction was dissolved again in 20 mM acetic acid buffer solution (pH 5.5). Then, to the mixture solution, ammonium sulfate was added so as to obtain 20% saturation concentration. […]

[7] = Isoelectric point by isoelectric point precipitation using Ampholine; type: physicochemical; details: 600V, 4° C., 48 hours
Procedure: When the isoelectric point of the present enzyme was measured by isoelectric point precipitation using Ampholine (electrification at 600V, at 4° C., for 48 hours), it was 9.7.

Row | Molecule | Relative activity (β-amylase [1]) [%] | Relative activity (%) (β-amylase [2]) | also measured
1 | [Ca+2] [Ca^2+] | 130 | – | –
2 | [Cu+2] [Cu^2+] | 46 | – | effect on activity (β-amylase [1]): inhibited
3 | [Fe+2] [Fe^2+] | 105 | – | Relative activity (β-amylase [1]; listed as Fe^3+): 113%
4 | [K+] [K^+] | 96 | – | –
5 | OC[C@H]1O[C@H](O[C@H]2[C@H](O)[C@@H](O)[C@@H](O[C@H]3[C@H](O)[C@@H](O)[C@@H](O[C@H]4[C@H](O)[C@@H](O)C(O)O[C@@H]4CO)O[C@@H]3CO)O[C@@H]2CO)[C@H](O)[C@@H](O)[C@@H]1O (stereo partly shown) [Maltotetraose] | – | 75 | –
6 | [Mg+2] [Mg^2+] | 103 | – | –
7 | [Mn+2] [Mn^2+] | 222 | – | –
8 | CCN1C(=O)C=CC1=O [N-ethylmaleimide] | 93 | – | –
9 | [Na+] [Na^+] | 88 | – | –
10 | O=C(O)c1cc[c]([Hg][Cl])cc1 [PCMB] | 25 | – | effect on activity (β-amylase [1]): inhibited
11 | CCCCCCCCCCCCOS(=O)(=O)[O-].[Na+] [SDS] | 37 | – | effect on activity (β-amylase [1]): inhibited
12 | [Zn+2] [Zn^2+] | 96 | – | –
13 | O=C(O)CI [monoiodoacetic acid] | 14 | – | effect on activity (β-amylase [1]): inhibited
14 | OC[C@H]1O[C@@H]2O[C@H]3[C@H](O)[C@@H](O)[C@@H](O[C@H]4[C@H](O)[C@@H](O)[C@@H](O[C@H]5[C@H](O)[C@@H](O)[C@@H](O[C@H]6[C@H](O)[C@@H](O)[C@@H](O[C@H]7[C@H](O)[C@@H](O)[C@@H](O[C@H]1[C@H](O)[C@H]2O)O[C@@H]7CO)O[C@@H]6CO)O[C@@H]5CO)O[C@@H]4CO)O[C@@H]3CO [α-cyclodextrin] | – | 0 | –
15 | OC[C@H]1O[C@@H]2O[C@H]3[C@H](O)[C@@H](O)[C@@H](O[C@H]4[C@H](O)[C@@H](O)[C@@H](O[C@H]5[C@H](O)[C@@H](O)[C@@H](O[C@H]6[C@H](O)[C@@H](O)[C@@H](O[C@H]7[C@H](O)[C@@H](O)[C@@H](O[C@H]8[C@H](O)[C@@H](O)[C@@H](O[C@H]1[C@H](O)[C@H]2O)O[C@@H]8CO)O[C@@H]7CO)O[C@@H]6CO)O[C@@H]5CO)O[C@@H]4CO)O[C@@H]3CO [β-cyclodextrin] | – | 1.4 | –
16 | OC[C@H]1O[C@@H]2O[C@H]3[C@H](O)[C@@H](O)[C@@H](O[C@H]4[C@H](O)[C@@H](O)[C@@H](O[C@H]5[C@H](O)[C@@H](O)[C@@H](O[C@H]6[C@H](O)[C@@H](O)[C@@H](O[C@H]7[C@H](O)[C@@H](O)[C@@H](O[C@H]8[C@H](O)[C@@H](O)[C@@H](O[C@H]9[C@H](O)[C@@H](O)[C@@H](O[C@H]1[C@H](O)[C@H]2O)O[C@@H]9CO)O[C@@H]8CO)O[C@@H]7CO)O[C@@H]6CO)O[C@@H]5CO)O[C@@H]4CO)O[C@@H]3CO [γ-cyclodextrin-, γ-cyclodextrin] | – | 0.6 | –
17 | Maltoheptaose | – | 111 | –
18 | Maltohexaose | – | 131 | –
19 | Maltopentaose | – | 102 | –
20 | Maltotriose | – | 0 | substrate specificity (words) (β-amylase [2]): did not act; also recorded: does not substantially act
21 | cyclodextrin | – | – | substrate specificity (words) (β-amylase [2]): does not substantially act; substrate specificity (words) (β-amylase [2]; listed as Cyclodextrin): almost broken down
22 | B1 | – | – | activity with respect to the maximum activity after treatment (pH stability): ≥ 70%; remaining activity after heat treatment ([3]; 55° C., 10 minutes, 0.1 M acetic acid-hydrochloric acid buffer pH 5.0, 10 mM calcium acetate, no heat treatment = 100%): ≥ 90%; thermostability (temperature until which stable) ([3]; pH 5.0, 10 minutes): ≤ 55 °C; optimum reaction temperature [4]: around 55 °C; optimum reaction temperature ([4]; listed as the present enzyme): about 55 °C; optimum reaction pH [5]: about 8.0; specific activity in the final stage as compared with that of the crude enzyme ([6]; final purification stage vs crude enzyme): 2270 times; Specific activity ([6]; purification stage of β-amylase from Bacillus flexus APC9451): 1569 u/mg; isoelectric point [7]: 9.7
